# Results reported in US12581252B2, “Substituted pyrrolo[3,4-b]pyridines as PI3K-α inhibitors” (Relay Therapeutics, Inc., priority 2020, dated 2026).
# Biological target: H1047R PIK3CA enzyme (Homo sapiens, UniProt P42336, H1047R)
# Assay: ADP-Glo Biochemical PIK3CA Kinase Assay
# Sequence of H1047R PIK3CA enzyme (P42336 whole entry H1047R): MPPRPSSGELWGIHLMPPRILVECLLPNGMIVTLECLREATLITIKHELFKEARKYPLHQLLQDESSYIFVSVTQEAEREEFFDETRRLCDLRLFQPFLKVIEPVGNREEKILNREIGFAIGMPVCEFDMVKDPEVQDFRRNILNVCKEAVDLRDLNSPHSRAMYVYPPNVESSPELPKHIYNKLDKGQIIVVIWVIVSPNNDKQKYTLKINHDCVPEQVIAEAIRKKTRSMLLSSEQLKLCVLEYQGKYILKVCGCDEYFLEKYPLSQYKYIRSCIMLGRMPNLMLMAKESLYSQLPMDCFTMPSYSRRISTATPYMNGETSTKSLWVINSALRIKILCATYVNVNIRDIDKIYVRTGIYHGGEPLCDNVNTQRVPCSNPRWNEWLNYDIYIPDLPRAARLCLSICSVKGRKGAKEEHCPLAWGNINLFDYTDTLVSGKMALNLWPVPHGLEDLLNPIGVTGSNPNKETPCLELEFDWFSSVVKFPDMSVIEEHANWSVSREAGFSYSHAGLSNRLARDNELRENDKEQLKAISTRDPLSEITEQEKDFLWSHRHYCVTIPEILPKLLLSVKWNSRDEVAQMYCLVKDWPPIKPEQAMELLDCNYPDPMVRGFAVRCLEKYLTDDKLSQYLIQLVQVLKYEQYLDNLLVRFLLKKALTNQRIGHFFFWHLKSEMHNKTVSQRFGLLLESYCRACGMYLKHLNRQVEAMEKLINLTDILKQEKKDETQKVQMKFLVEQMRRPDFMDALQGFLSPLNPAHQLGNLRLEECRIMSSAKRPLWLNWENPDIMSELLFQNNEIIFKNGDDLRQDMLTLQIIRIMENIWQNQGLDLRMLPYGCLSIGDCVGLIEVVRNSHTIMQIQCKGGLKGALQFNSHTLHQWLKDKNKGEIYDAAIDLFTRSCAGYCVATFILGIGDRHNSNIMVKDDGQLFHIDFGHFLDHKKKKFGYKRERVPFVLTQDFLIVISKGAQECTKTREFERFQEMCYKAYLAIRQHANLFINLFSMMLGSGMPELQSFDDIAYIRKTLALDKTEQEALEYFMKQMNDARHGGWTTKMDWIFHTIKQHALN
# Sequence of H1047R PIK3CA enzyme (P27986 whole entry partner): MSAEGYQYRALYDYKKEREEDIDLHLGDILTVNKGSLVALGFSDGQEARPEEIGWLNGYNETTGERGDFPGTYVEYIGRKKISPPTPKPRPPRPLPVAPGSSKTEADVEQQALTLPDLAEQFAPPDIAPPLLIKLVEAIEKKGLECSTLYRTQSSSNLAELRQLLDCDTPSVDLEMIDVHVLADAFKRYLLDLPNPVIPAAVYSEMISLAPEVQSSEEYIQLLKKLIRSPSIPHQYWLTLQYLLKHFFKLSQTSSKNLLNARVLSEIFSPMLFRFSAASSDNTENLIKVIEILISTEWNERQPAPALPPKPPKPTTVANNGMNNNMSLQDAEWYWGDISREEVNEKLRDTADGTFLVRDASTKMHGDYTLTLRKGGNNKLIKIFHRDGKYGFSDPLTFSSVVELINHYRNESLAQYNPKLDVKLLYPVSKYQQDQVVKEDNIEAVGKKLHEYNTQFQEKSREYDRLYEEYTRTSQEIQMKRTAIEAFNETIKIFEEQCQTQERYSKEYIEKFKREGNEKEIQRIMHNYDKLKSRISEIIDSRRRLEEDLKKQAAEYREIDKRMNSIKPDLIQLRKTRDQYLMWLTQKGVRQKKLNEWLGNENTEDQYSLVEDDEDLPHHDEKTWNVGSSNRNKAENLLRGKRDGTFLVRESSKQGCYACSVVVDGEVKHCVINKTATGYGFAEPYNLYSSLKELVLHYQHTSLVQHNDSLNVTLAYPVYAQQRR
row,Compound,IC50
1,O=C(Nc1cccc2c1C(c1cc(Br)ccc1Cl)NC2=O)c1cc(O)cc(C(F)(F)F)c1 (stereo not drawn) [Compound I-414],0.1 to 0.5 µM
2,O=C(Nc1cc(C2CC(F)(F)C2)cc2c1C(c1cc(F)ccc1Cl)NC2=O)c1cc(F)cc(C(F)(F)F)c1 (stereo not drawn) [Compound I-779],≤ 0.1 µM
3,O=C(Nc1cc(N2CC(C(F)F)C2)nc2c1C(c1cc(F)ccc1Cl)NC2=O)c1cc(F)cc(C(F)(F)F)c1 (stereo not drawn) [Compound I-487],≤ 0.1 µM
4,CC(C)n1cc(-c2cc(NC(=O)c3cc(F)cc(C(F)(F)F)c3)c3c(c2)C(=O)NC3c2cc(F)ccc2Cl)ccc1=O (stereo not drawn) [Compound I-699],≤ 0.1 µM
5,O=C(Nc1cc(Br)cc2c1[C@H](c1cc(F)cc(F)c1Cl)NC2=O)c1cc(F)cc(C(F)(F)F)c1 [Compound I-805],≤ 0.1 µM
6,O=C(Nc1cc(-c2ccc3nc(C(F)F)cn3c2)cc2c1[C@H](c1cc(F)ccc1Cl)NC2=O)c1cc(F)cc(C(F)(F)F)c1 [Compound I-1929],≤ 0.1 µM
7,O=C1NC(c2cc(F)ccc2Cl)c2c(NC(=O)N3CCc4ccccc4CC3)cccc21 (stereo not drawn) [Compound I-2308],10 to 100 µM
8,N#Cc1cccc(S(=O)(=O)Cc2cc(NC(=O)c3cc(F)cc(C(F)(F)F)c3)c3c(c2)C(=O)N[C@H]3c2cc(F)ccc2Cl)c1 [Compound I-1594],≤ 0.1 µM
9,"CN1CCN(C(=O)Nc2cc(Br)cc3c2[C@H](c2cc(F)ccc2Cl)NC3=O)CC1(C)C (single isomer, unassigned) [Compound I-2240]",10 to 100 µM
10,O=C(Nc1cc(-c2cc(F)n3ncnc3c2)cc2c1[C@H](c1cc(F)ccc1Cl)NC2=O)c1cc(F)cc(C(F)(F)F)c1 [Compound I-1927],≤ 0.1 µM
11,"CN1C[C@@H](COc2cc(NC(=O)c3cc(F)cc(C(F)(F)F)c3)c3c(c2)C(=O)N[C@H]3c2cc(F)ccc2Cl)CC1=O (single isomer, unassigned) [Compound I-1524]",10 to 100 µM
12,Cn1nc(Nc2cc(-c3ccc4ncnn4c3)cc3c2C(c2cc(F)ccc2Cl)NC3=O)c2cc(F)cc(C(F)(F)F)c21 (stereo not drawn) [Compound I-2050],0.5 to 1 µM
13,O=C(Nc1cc(NC(=O)c2cc(F)cc(C(F)(F)F)c2)c2c(c1)C(=O)NC2c1cc(F)ccc1Cl)c1cccnc1 (stereo not drawn) [Compound I-1356],≤ 0.1 µM
14,O=C1NC(c2cc(F)ccc2Cl)c2c(NC(=O)N3CC(C(F)(F)F)Nc4ccccc43)cccc21 (stereo not drawn) [Compound I-2339],10 to 100 µM
15,Cn1cc2c(C(=O)Nc3cccc4c3C(c3cc(F)ccc3Cl)NC4=O)cc(F)cc2n1 (stereo not drawn) [Compound I-870],10 to 100 µM

# The next lines start with the values.
row,IC50,Compound
1,10 to 100 µM,Cc1ccccc1C1NC(=O)c2cccc(NC(=O)c3csc4cncnc34)c21 (stereo not drawn) [Compound I-63]
2,10 to 100 µM,O=C(Nc1cc(-c2ccc3ncnn3c2)nc2c1C(C1CCOCC1)NC2=O)c1cc(F)cc(C(F)(F)F)c1 (stereo not drawn) [Compound I-1705]
3,1 to 10 µM,"O=C1N[C@@H](c2cc(F)ccc2Cl)c2c(NC(=O)N3C[C@](O)(C(F)(F)F)c4ccccc43)cccc21 (single isomer, unassigned) [Compound I-2384]"
4,≤ 0.1 µM,O=C1COC(c2cc(NC(=O)c3cc(F)cc(C(F)(F)F)c3)c3c(c2)C(=O)NC3c2cc(F)ccc2Cl)CN1 (stereo not drawn) [Compound I-1308]
5,1 to 10 µM,"N#CCc1cc(NC(=O)N2C[C@@](O)(C(F)(F)F)c3cc(F)ccc32)c2c(c1)C(=O)N[C@H]2c1cc(F)ccc1Cl (single isomer, unassigned) [Compound I-2624]"
6,10 to 100 µM,O=C1NC(c2cc(F)ccc2Cl)c2c(NC(=O)C3CNCC(C(F)(F)F)C3)cc(-c3ccc4ncnn4c3)cc21 (mixture of isomers) [Compound I-2051]
7,≤ 0.1 µM,CC(C)n1cc(-c2cc(NC(=O)c3cc(F)cc(C(F)(F)F)c3)c3c(c2)C(=O)N[C@H]3c2cc(F)ccc2Cl)ccc1=O [Compound I-743]
8,0.1 to 0.5 µM,N#CC1(CNc2cc(NC(=O)c3cc(F)cc(C(F)(F)F)c3)c3c(c2)C(=O)N[C@@H]3c2cc(F)ccc2Cl)CC1 [Compound I-869]
9,10 to 100 µM,N#C[C@H]1CCN(C(=O)Nc2cc(-c3ccc4ncnn4c3)cc3c2C(c2cc(F)ccc2Cl)NC3=O)C1 (mixture of isomers) [Compound I-2415]
